US5223526A, “Pyrazole carboxanilide fungicides and use” (Monsanto Company, priority 1992, dated 1993)

Tests used:
[1] = target: T1, succinate dehydrogenase (Botrytis cinerea, UniProt A0A384J5E4+A0A384J8V8+A0A384JHJ5); experiment: Enzyme inhibition: succinate dehydrogenase activity in Botrytis cinerea mitochondria (DCPIP reduction); assay type: biochemical; details: concentration required to inhibit the rate of DCPIP reduction by 50%; Botrytis cinerea isolate Nick mitochondria; read-out: I50 (μM conc.)
T1 construct: succinate-DCPIP reductase assay with KCN
T1 sequence (A0A384J5E4 1-300): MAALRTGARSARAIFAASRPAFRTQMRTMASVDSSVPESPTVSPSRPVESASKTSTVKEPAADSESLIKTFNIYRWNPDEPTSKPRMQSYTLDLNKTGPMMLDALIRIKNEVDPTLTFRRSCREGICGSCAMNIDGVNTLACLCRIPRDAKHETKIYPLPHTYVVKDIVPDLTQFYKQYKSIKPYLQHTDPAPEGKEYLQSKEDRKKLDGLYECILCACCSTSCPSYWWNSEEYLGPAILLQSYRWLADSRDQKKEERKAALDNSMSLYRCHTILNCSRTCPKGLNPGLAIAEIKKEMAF
T1 sequence (A0A384J8V8 1-189): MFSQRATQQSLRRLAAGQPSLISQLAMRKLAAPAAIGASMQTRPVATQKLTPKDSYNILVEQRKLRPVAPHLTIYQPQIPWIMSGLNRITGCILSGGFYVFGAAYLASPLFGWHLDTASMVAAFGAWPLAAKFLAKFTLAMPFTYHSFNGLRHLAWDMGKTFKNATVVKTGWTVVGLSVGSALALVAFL
T1 sequence (A0A384JHJ5 1-192): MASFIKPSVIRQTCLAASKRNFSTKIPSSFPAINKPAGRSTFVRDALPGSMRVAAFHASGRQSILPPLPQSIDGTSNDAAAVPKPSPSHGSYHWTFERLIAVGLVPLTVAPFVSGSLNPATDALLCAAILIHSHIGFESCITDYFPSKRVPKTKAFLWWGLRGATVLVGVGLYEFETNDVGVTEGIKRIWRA
T1 sequence (A0A384K456 1-647 partner): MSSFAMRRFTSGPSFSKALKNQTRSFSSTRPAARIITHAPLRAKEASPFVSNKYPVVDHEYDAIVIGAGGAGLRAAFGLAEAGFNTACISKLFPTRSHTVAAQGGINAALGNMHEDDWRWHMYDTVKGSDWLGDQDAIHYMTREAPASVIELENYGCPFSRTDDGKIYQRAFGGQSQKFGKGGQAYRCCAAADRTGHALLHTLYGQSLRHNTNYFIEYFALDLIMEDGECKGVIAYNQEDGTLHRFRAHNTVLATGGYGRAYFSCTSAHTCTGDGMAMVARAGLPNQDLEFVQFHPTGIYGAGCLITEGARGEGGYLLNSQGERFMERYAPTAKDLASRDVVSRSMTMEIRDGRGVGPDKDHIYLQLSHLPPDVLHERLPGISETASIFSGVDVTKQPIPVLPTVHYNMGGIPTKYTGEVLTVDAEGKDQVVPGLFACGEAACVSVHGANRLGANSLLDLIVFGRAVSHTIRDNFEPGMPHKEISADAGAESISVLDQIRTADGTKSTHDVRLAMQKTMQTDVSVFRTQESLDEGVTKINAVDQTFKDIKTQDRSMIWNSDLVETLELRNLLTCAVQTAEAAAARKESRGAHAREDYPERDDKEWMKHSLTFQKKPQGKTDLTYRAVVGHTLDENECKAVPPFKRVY
Method in brief: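 Crude mitochondria from Botrytis cinerea isolate Nick mycelia, prepared by bead-beating and differential centrifugation, started reactions. SDH activity followed as DCPIP reduction at 600 nm in 50 mM K-phosphate pH 7.2 with 1 mM KCN, 45 μM DCPIP, 17 mM succinate, 1% acetone. I50 from semilog inhibition plots, corrected for succinate-free rates.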

[2] = system: Botrytis cinerea; experiment: Eggplant grey mold; assay type: in vivo; design: scale not given here; details: inoculated 24 h later, rated after 3-4 days; for Disease Control Rating at 500 ppm: eggplant sprayed with 500 ppm; for Disease Control Rating at 20 ppm: eggplant sprayed with 20 ppm; for Disease Control Rating at 100 ppm: eggplant sprayed with 100 ppm
Method in brief: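 Protective test: compound formulations (2:3 acetone:water, 0.5% Tween 20; 500, 100 or 20 ppm) sprayed on 14-18-day-old plants, with spore inoculum (4×10^6 spore/mL) applied a day later. Disease control rated on Botrytis lesions after 3-4 days at 23 °C and 100% humidity.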

[3] = system: Botrytis cinerea; experiment: Vine grey mold (grape berries); assay type: in vivo; details: average of six berries, 7-10 days; for pest or weed control at 50 ppm: grape berries treated with 50 ppm, read-out: % DISEASE CONTROL 50 ppm; for pest or weed control at 200 ppm: grape berries treated with 200 ppm, read-out: % DISEASE CONTROL 200 ppm
Method in brief: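 Preventive berry test: compound at 50 or 200 ppm (acetone/water, 0.05% Tween 20) applied one day before inoculation with 10^6 spores/mL Botrytis conidia. After 7-10 days at 20 °C under 12 h light, infected surface area rated; disease control expressed as percent reduction from control mean; repeated-test values averaged.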

[4] = system: Rhizoctonia solani; experiment: Rice sheath blight; assay type: in vivo; design: scale not given here; details: inoculated two days later, rated after 7 days, average of five plants; for Disease Control Rating at 0.5 mg/mL: foliage and soil sprayed with 0.5 mg/mL; for Disease Control Rating at 0.02 mg/mL: foliage and soil sprayed with 0.02 mg/mL; for Disease Control Rating at 0.1 mg/mL: foliage and soil sprayed with 0.1 mg/mL
Method in brief: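 Rice plants 11–15 days old had foliage and soil sprayed with 0.5, 0.1 or 0.02 mg/mL Compound A in water/acetone/Tween 20, then kept in flooded trays. Two days later, rice-grain Rhizoctonia solani inoculum went to plant bases; disease control scored versus untreated after 7 days at 25 °C, high humidity, averaging five plants.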

SMILES | IC50 [1] [µM] | Disease Control Rating at 500 ppm [2] | pest or weed control at 50 ppm [3] [%] | pest or weed control at 200 ppm [3] [%] | Disease Control Rating at 0.5 mg/mL [4] | Disease Control Rating at 0.02 mg/mL [4] | Disease Control Rating at 0.1 mg/mL [4] | Disease Control Rating at 20 ppm [2] | Disease Control Rating at 100 ppm [2]
Cn1cc(C(=O)Nc2ccccc2C2=CCOCC2)c(C(F)(F)F)n1 [Example 108, 1H-pyrazole-4-carboxamide, N-[2-(5,6-dihydro-2H-pyran-4-yl)phenyl]-1-methyl-3-(trifluoromethyl)-] | 1.6 | 0 | 12 | 0 | 0 | – | – | – | –
Cn1cc(C(=O)Nc2ccccc2C2=CCCCC2)c(C(F)F)n1 [Example 109, 1H-pyrazole-4-carboxamide, N-[2-(1-cyclohexen-1-yl)phenyl]-3-(difluoromethyl)-1-methyl-] | 0.0072 | 0 | 100 | 100 | 3 | 0 | 1 | – | –
Cn1cc(C(=O)Nc2ccccc2C2=CCCCC2)c(C(F)(F)F)n1 [Example 110, 1H-pyrazole-4-carboxamide, N-[2-(1-cyclohexen-1-yl)phenyl]-1-methyl-3-(trifluoromethyl)-] | 0.019 | 2 | 97 | 100 | 3 | 0 | 0 | 1 | 2
Cn1cc(C(=O)Nc2ccccc2C2=CCCCCC2)c(C(F)F)n1 [Example 111, 1H-pyrazole-4-carboxamide, N-[2-(1-cyclohepten-1-yl)phenyl]-3-(difluoromethyl)-1-methyl-] | 0.0038 | 1 | 99 | 100 | 3 | 3 | 3 | 1 | 1
Cn1cc(C(=O)Nc2ccccc2C2=CCCCCC2)c(C(F)(F)F)n1 [Example 112, 1H-pyrazole-4-carboxamide, N-[2-(1-cyclohepten-1-yl)phenyl]-1-methyl-3-(trifluoromethyl)-] | 0.0021 | 3 | 88 | 95 | 0 | – | – | 2 | 3
Cc1nn(C)c(F)c1C(=O)Nc1ccccc1C1CCCCCC1 [Example 113, 1H-pyrazole-4-carboxamide, N-(2-cycloheptylphenyl)-5-fluoro-1,3-dimethyl-] | 0.013 | 3 | 28 | 60 | 3 | 3 | 3 | 1 | 1
Cn1nc(C(F)F)c(C(=O)Nc2ccccc2C2CCCCCC2)c1Cl [Example 114, 1H-pyrazole-4-carboxamide, 5-chloro-N-(2-cycloheptylphenyl)-3-(difluoromethyl)-1-methyl-] | 0.0036 | 2 | 78 | 90 | 3 | 3 | 3 | 0 | 1
Cn1nc(C(F)F)c(C(=O)Nc2ccccc2C2CCCCCC2)c1F [Example 115, 1H-pyrazole-4-carboxamide, N-(2-cycloheptylphenyl)-3-(difluoromethyl)-5-fluoro-1-methyl-] | 0.0065 | 3 | 42 | 95 | 3 | 3 | 3 | 1 | 2
